In patent publication US10280166B2, “2-(1H-indazol-3-yl)-3H-imidazo[4,5-B]pyridine and therapeutic uses thereof” (Samumed, LLC, priority 2014, dated 2019):
pEC50, pIC50: −log10 of the molar value.

Experiments:
[1] = test system: Wnt activity (SW480 colon carcinoma cells stably expressing the Sp5-Luc reporter gene); test: Sp5-Luc reporter gene screening assay for Wnt activity in SW480 cells; type: cell-based; details: Homo sapiens, 42 h incubation, luminescence
Text: The screening assay for Wnt activity is described as follows. Reporter cell lines can be generated by stably transducing cancer cell lines (e.g., colon cancer) or primary cells (e.g., IEC-6 intestinal cells) with a lentiviral construct that includes a Wnt-responsive promoter driving expression of the firefly luciferase gene.
SW480 colon carcinoma cells were transduced with a lentiviral vector expressing luciferase with a human Sp5 promoter consisting of a sequence of eight TCF/LEF binding sites. SW480 cells stably expressing the Sp5-Luc reporter gene and a hygromycin resistance gene were selected by treatment with 150 μg/ml of hygromycin for 7 days. These stably transduced SW480 cells were expanded in cell culture and used for all further screening activities. For Sp5-Luc reporter gene assays, the cells were plated at 10,000 cells/well in 96-well plates with growth medium containing 10% fetal calf serum and incubated overnight at 37° C. and 5% CO2. Each compound was dissolved in DMSO as a 10 mM stock in standard j-vials and used to prepare compound source plates in dose-response format with 3-fold serial dilutions and a 10 mM top concentration. Compound transfer from serially diluted source plates to assay plates containing the cells was accomplished using a pintool (Multimek 96, Beckman equipped with V&P Scientific FP1S50H pins) based liquid handling protocol. This protocol used a slotted pin to transfer 50 nl of compound from a source plate well to an assay plate well containing 50 μl of cells in growth medium. […] Control wells received 50 nl of DMSO treatment for normalization and calculating IC50 values. The treated cells were incubated at 37° C. and 5% CO2 for an additional forty-two hours. Following incubation, the growth medium was removed and 50 μl of BrightGlo luminescence reagent (Promega) was added to each well of the 96-well assay plates. The plates were placed on an orbital shaker for 5 min and then luminescence was quantified on the Victor3 (Perkin Elmer) plate reader. Readings were normalized to DMSO only treated cells, and normalized activities were utilized for IC50 calculations using the dose-response log (inhibitor) vs. response—variable slope (four parameters) nonlinear regression feature available in GraphPad Prism 5.0 or 6.0.

[2] = test system: primary human fibroblasts derived from IPF patients (LL29 cells); test: Inhibition of fibrosis (αSMA) in TGF-β1 treated primary human fibroblasts from IPF patients; type: cell-based; details: Fibroblast, 96 h, TGF-β1 20 ng/mL, 4 days, % αSMA positive cells
Text: The above synthesized compounds were screened using primary human fibroblasts (derived from IPF patients) treated with TGF-β1 to determine their ability to inhibit the fibrotic process.
Primary human fibroblasts derived from IPF patients (LL29 cells) [^1Xiaoqiu Liu, et.al., “Fibrotic Lung Fibroblasts Show Blunted Inhibition by cAMP Due to Deficient cAMP Response Element-Binding Protein Phosphorylation”, Journal of Pharmacology and Experimental Therapeutics (2005), 315(2), 678-687; ^2Watts, K. L., et.al., “RhoA signaling modulates cyclin D1 expression in human lung fibroblasts; implications for idiopathic pulmonary fibrosis”, Respiratory Research (2006), 7(1), 88] were obtained from American Type Culture Collection (ATCC) and expanded in F12 medium supplemented with 15% Fetal Bovine Serum and Penicillin/Streptomycin.
Each compound was dissolved in DMSO as a 10 mM stock and used to prepare compound source plates. Serial dilution (1:2, 11-point dose-response curves from 10 μM to 1.87 nM) and compound transfer was performed using the ECHO 550 (Labcyte, Sunnyvale, Calif.) into 384-well clear bottom assay plates (Greiner Bio-One) with appropriate DMSO backfill for a final DMSO concentration of 0.1%. LL29 cells were plated at 1,500 cells/well in 80 μl/well F12 medium supplemented with 1% Fetal Bovine Serum. One hour after addition of the cells, TGF-β1 (Peprotech; 20 ng/mL) was added to the plates to induce fibrosis (ref. 1 and 2 above). Wells treated with TGF-β1 and containing DMSO were used as controls. Cells were incubated at 37° C. and 5% CO2 for 4 days. Following incubation for 4 days, SYTOX green nucleic acid stain (Life Technologies [Thermo Fisher Scientific]) was added to the wells at a final concentration of 1 uM and incubated at room temperature for 30 min. Cells were then fixed using 4% formaldehyde (Electron Microscopy Sciences), washed 3 times with PBS followed by blocking and permeabilization using 3% Bovine Serum Albumin (BSA; Sigma) and 0.3% Triton X-100 (Sigma) in PBS. Cells were then stained with antibody specific to α-smooth muscle actin (αSMA; Abcam) (ref. 1 and 2 above) in 3% Bovine Serum Albumin (BSA; Sigma) and 0.3% Triton X-100 (Sigma) in PBS, and incubated overnight at 4° C. Cells were then washed 3 times with PBS, followed by incubation with Alexa Flor-647 conjugated secondary antibody (Life Technologies [Thermo Fisher Scientific]) and DAPI at room temperature for 1 hour. Cells were then washed 3 times with PBS and plates were sealed for imaging. αSMA staining was imaged by excitation at 630 nm and emission at 665 nm and quantified using the Compartmental Analysis program on the CellInsight CX5 (Thermo Scientific). Dead or apoptotic cells were excluded from analysis based on positive SYTOX green staining. % of total cells positive for αSMA were counted in each well and normalized to the average of 11 wells treated with TGF-β1 on the same plate using Dotmatics' Studies Software. The normalized averages (fold change over untreated) of 3 replicate wells for each compound concentration were used to create dose-responses curves and EC50 values were calculated using non-linear regression curve fit in the Dotmatics' Studies Software. The EC50 values are reported.

SMILES | pIC50 [1] | pEC50 [2]
O=C(Nc1cncc(-c2ccc3[nH]nc(-c4nc5c(-c6ccccn6)ccnc5[nH]4)c3c2)c1)c1ccccc1 [Compound 141, N-(5-(3-(7-(Pyridin-2-yl)-3H-imidazo[4,5-b]pyridin-2-yl)-1H-indazol-5-yl)pyridin-3-yl)benzamide] | 7.86 | 8.00
c1ccc(-c2ccnc3[nH]c(-c4n[nH]c5ccc(-c6cncc(CNCC7CCCC7)c6)cc45)nc23)nc1 [Compound 154, 1-Cyclopentyl-N-((5-(3-(7-(pyridin-2-yl)-3H-imidazo[4,5-b]pyridin-2-yl)-1H-indazol-5-yl)pyridin-3-yl)methyl)methanamine] | 5.84 | 8.00
Cc1ccc(-c2ccnc3[nH]c(-c4n[nH]c5ccc(-c6cncc(NC(=O)C(C)(C)C)c6)cc45)nc23)s1 [Compound 372, N-(5-(3-(7-(5-Methylthiophen-2-yl)-3H-imidazo[4,5-b]pyridin-2-yl)-1H-indazol-5-yl)pyridin-3-yl)pivalamide] | 9.22 | 11.05
CCCCC(=O)Nc1cncc(-c2ccc3[nH]nc(-c4nc5c(-c6ccoc6)ccnc5[nH]4)c3c2)c1 [Compound 304, N-(5-(3-(7-(Furan-3-yl)-3H-imidazo[4,5-b]pyridin-2-yl)-1H-indazol-5-yl)pyridin-3-yl)pentanamide] | 8.22 | 10.10
CCNCc1cncc(-c2ccc3[nH]nc(-c4nc5c(-c6cc(F)cc(NCCN(C)C)c6)ccnc5[nH]4)c3c2)c1 [Compound 448, N^1-(3-(2-(5-(5-((Ethylamino)methyl)pyridin-3-yl)-1H-indazol-3-yl)-3H-imidazo[4,5-b]pyridin-7-yl)-5-fluorophenyl)-N^2,N^2-dimethylethane-1,2-diamine] | 6.69 | 9.15
O=C(Nc1cncc(-c2ccc3[nH]nc(-c4nc5c(-c6ccsc6)ccnc5[nH]4)c3c2)c1)c1ccccc1 [Compound 271, N-(5-(3-(7-(Thiophen-3-yl)-3H-imidazo[4,5-b]pyridin-2-yl)-1H-indazol-5-yl)pyridin-3-yl)benzamide] | 8.08 | 10.17
FC1(F)CCN(Cc2cncc(-c3ccc4[nH]nc(-c5nc6c(-c7cccs7)ccnc6[nH]5)c4c3)c2)C1 [Compound 337, 2-(5-(5-((3,3-Difluoropyrrolidin-1-yl)methyl)pyridin-3-yl)-1H-indazol-3-yl)-7-(thiophen-2-yl)-3H-imidazo[4,5-b]pyridine] | 7.82 | 8.88
Fc1cccc(-c2ccnc3[nH]c(-c4n[nH]c5ccc(C6=CCNCC6)cc45)nc23)c1 [Compound 1874, 7-(3-Fluorophenyl)-2-(5-(1,2,3,6-tetrahydropyridin-4-yl)-1H-indazol-3-yl)-3H-imidazo[4,5-b]pyridine] | < 6.00 | 9.50
Nc1cncc(-c2ccc3[nH]nc(-c4nc5c(-c6cccnc6)ccnc5[nH]4)c3c2)c1 [Compound 81, 5-(3-(7-(Pyridin-3-yl)-3H-imidazo[4,5-b]pyridin-2-yl)-1H-indazol-5-yl)pyridin-3-amine] | 8.24 | 11.05
CC(C)Nc1cncc(-c2ccc3[nH]nc(-c4nc5c(-c6cccnc6)ccnc5[nH]4)c3c2)c1 [Compound 90, N-isopropyl-5-(3-(7-(pyridin-3-yl)-3H-imidazo[4,5-b]pyridin-2-yl)-1H-indazol-5-yl)pyridin-3-amine] | 7.92 | 10.11
CN(C)Cc1cncc(-c2ccc3[nH]nc(-c4nc5c(N6CCCCC6)ccnc5[nH]4)c3c2)c1 [Compound 169, N,N-Dimethyl-1-(5-(3-(7-(piperidin-1-yl)-3H-imidazo[4,5-b]pyridin-2-yl)-1H-indazol-5-yl)pyridin-3-yl)methanamine] | 5.84 | 9.40
Fc1cccc(-c2ccnc3[nH]c(-c4n[nH]c5ccc(-c6cnccn6)cc45)nc23)c1 [Compound 1890, 7-(3-Fluorophenyl)-2-(5-(pyrazin-2-yl)-1H-indazol-3-yl)-3H-imidazo[4,5-b]pyridine] | 7.41 | 9.78
c1cncc(-c2ccc3[nH]nc(-c4nc5cccnc5[nH]4)c3c2)c1 [Compound 238, 2-(5-(Pyridin-3-yl)-1H-indazol-3-yl)-3H-imidazo[4,5-b]pyridine] | 7.54 | 10.89
O=C(Nc1cncc(-c2ccc3[nH]nc(-c4nc5c(-c6ccoc6)ccnc5[nH]4)c3c2)c1)C1CCC1 [Compound 306, N-(5-(3-(7-(Furan-3-yl)-3H-imidazo[4,5-b]pyridin-2-yl)-1H-indazol-5-yl)pyridin-3-yl)cyclobutanecarboxamide] | 8.17 | 9.28
Cc1ccncc1-c1ccc2[nH]nc(-c3nc4c(-c5cc(F)cc(CNS(C)(=O)=O)c5)ccnc4[nH]3)c2c1 [Compound 421, N-(3-fluoro-5-(2-(5-(4-Methylpyridin-3-yl)-1H-indazol-3-yl)-3H-imidazo[4,5-b]pyridin-7-yl)benzyl)methanesulfonamide] | 8.21 | 10.35
Fc1cccc(-c2ccnc3[nH]c(-c4n[nH]c5ccc(-c6cncc(OC7CCNCC7)c6)cc45)nc23)c1 [Compound 1880, 7-(3-Fluorophenyl)-2-(5-(5-(piperidin-4-yloxy)pyridin-3-yl)-1H-indazol-3-yl)-3H-imidazo[4,5-b]pyridine] | 5.92 | 9.38
Fc1ccc(-c2ccnc3[nH]c(-c4n[nH]c5ccc(-c6cncnc6)cc45)nc23)cc1 [Compound 52, 7-(4-Fluorophenyl)-2-(5-(pyrimidin-5-yl)-1H-indazol-3-yl)-3H-imidazo[4,5-b]pyridine] | 7.59 | 8.90
Cc1ncc(-c2ccc3[nH]nc(-c4nc5c(-c6cccc(F)c6)ccnc5[nH]4)c3c2)n1C [Compound 1877, 2-(5-(1,2-Dimethyl-1H-imidazol-5-yl)-1H-indazol-3-yl)-7-(3-fluorophenyl)-3H-imidazo[4,5-b]pyridine] | < 5.00 | 8.00
CCNCc1cncc(-c2ccc3[nH]nc(-c4nc5c(-c6ccccn6)ccnc5[nH]4)c3c2)c1 [Compound 136, N-((5-(3-(7-(Pyridin-2-yl)-3H-imidazo[4,5-b]pyridin-2-yl)-1H-indazol-5-yl)pyridin-3-yl)methyl)ethanamine] | 5.81 | 8.75
CC(C)(C)CC(=O)Nc1cncc(-c2ccc3[nH]nc(-c4nc5cccnc5[nH]4)c3c2)c1 [Compound 250, N-(5-(3-(3H-Imidazo[4,5-b]pyridin-2-yl)-1H-indazol-5-yl)pyridin-3-yl)-3,3-dimethylbutanamide] | 6.91 | 8.59
